The test system of the assay is Mouse embryonic fibroblasts (OG2-MEF; hemizygous for the Oct4-GFP transgene). The assay can be described thus: Reprogramming of mouse embryonic fibroblasts, Oct4-GFP colony count. To be noted: OG2-MEF transfected with OSKM, after 15 days, compared to control group. It counts as cell-based. Here is the method:
FIG. 1 is a process of screening mouse cell reprogramming factors using analog library screening of novel trans-3-indoleacrylic acid-based compounds. In order to screen low-molecular-weight compounds that promote the production of reprogrammed stem cells, mouse embryonic stem cells (OG2-MEF; hemizygous for the Oct4-GFP transgene) were transduced with reprogramming viruses (Oct4, Sox2, Klf4, and c-Myc). After 5 days, the cells were seeded on gelatin-coated plates and then cultured in mouse embryonic stem cell culture media containing each of low-molecular-weight compounds until colonies having a morphology similar to that of mouse embryonic stem cells were formed. After 15 days, the number of colonies expressing endogenous Oct4 GFP fluorescence was measured, and compounds that increased the efficiency of reprogramming compared to that of a control group were selected. […] Oct4 (O), Sox2 (S), Klf4 (K), and cMyc (M). FIG. 1B is a graph showing the increase in efficiency of reprogramming by RSC-133 and ID-558 among screened compounds. The values shown on the graph are mean values. The data are expressed as mean±SD (n=3).
The OSKM reprogramming factor virus was produced according to the method of Example 3. […] At 15 days after the transfection, the number of either colonies showing AP activity or colonies expressing endogenous Oct4 GFP fluorescence was measured to determine the efficiency of reprogramming.
To discover low-molecular-weight compounds that are involved in the reprogramming process, analog library screening of novel trans-3-indoleacrylic acid-based compounds was performed in mouse cells. Mouse embryonic fibroblasts (OG2-MEF: hemizygous for the Oct4-GFP transgene) were transfected with reprogramming viruses of Oct4, Sox2, Klf4 and c-Myc (OSKM), and after 5 days, the cells were seeded on gelatin-coated 12-well plates and incubated with mouse embryonic stem cell culture medium containing each of low-molecular-weight compounds until colonies having a morphology similar to that mouse stem cells were formed so that endogenous Oct4 GFP fluorescence was expressed (FIG. 1A). […]

As to `CN(C)C(=O)c1ccc(O)c(NC(=O)C=Cc2c[nH]c3ccccc23)c1` [ID-558, 3-[3-(1H-indol-3-yl)-acrylamido]-4-hydroxy-N,N-dimethylbenzamide], the “efficiency of reprogramming (number of colonies expressing endogenous Oct4 GFP fluorescence)” value is recorded as “showed the effect of increasing the efficiency of reprogramming”.

The record behind these values is patent publication US9587225B2, “Low-molecular-compound for improving production, maintenance and proliferation of pluripotent stem cells, composition comprising the same, and culture method” (KOREA RESEARCH INSTITUTE OF BIOSCIENCE AND BIOTECHNOLOGY, priority 2012, dated 2017).
